Usually IC50 stands for the concentration needed to halve the response being measured. Low readings indicate greater potency in that assay, high ones weaker potency in that assay.

The text below walks through data of ChEMBL document CHEMBL3132806, “Dual mode of action of phenyl-pyrazole-phenyl (6-5-6 system)-based PPI inhibitors: alpha-helix backbone versus alpha-helix binding epitope” (Medchemcomm, 2013).

Each structure is given as a SMILES string.

Data set [1] concerns the target Tumour suppressor p53/oncoprotein Mdm2 (Homo sapiens, UniProt Q00987). Kind of data set: Inhibition of 6His-tagged MDM2 (1 to 118) interaction to FITC-tagged p53 (17 to 26) (unknown origin) after 30 mins by fluorescence polarization assay. In kind it is protein assay. For orientation: In fluorescence polarisation assays a small probe gives low polarisation when free and higher when bound to something large.

Data set [2] can be described thus: Kinetic solubility of the compound in PBS buffer. The data set is classed as physicochemical.

Sequence of Tumour suppressor p53/oncoprotein Mdm2 (P04637 whole entry): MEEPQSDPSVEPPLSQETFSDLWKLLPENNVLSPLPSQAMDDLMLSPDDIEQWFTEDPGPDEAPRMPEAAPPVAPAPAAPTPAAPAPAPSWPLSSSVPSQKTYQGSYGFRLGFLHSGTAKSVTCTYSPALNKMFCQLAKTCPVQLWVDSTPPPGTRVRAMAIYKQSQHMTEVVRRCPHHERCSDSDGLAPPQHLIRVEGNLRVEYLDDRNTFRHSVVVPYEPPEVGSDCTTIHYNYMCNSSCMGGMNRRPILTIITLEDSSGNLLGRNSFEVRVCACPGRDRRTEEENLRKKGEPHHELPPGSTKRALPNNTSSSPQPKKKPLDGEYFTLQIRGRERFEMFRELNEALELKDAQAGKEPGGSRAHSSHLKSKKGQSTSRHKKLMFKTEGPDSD
Sequence of Tumour suppressor p53/oncoprotein Mdm2 (Q00987 whole entry): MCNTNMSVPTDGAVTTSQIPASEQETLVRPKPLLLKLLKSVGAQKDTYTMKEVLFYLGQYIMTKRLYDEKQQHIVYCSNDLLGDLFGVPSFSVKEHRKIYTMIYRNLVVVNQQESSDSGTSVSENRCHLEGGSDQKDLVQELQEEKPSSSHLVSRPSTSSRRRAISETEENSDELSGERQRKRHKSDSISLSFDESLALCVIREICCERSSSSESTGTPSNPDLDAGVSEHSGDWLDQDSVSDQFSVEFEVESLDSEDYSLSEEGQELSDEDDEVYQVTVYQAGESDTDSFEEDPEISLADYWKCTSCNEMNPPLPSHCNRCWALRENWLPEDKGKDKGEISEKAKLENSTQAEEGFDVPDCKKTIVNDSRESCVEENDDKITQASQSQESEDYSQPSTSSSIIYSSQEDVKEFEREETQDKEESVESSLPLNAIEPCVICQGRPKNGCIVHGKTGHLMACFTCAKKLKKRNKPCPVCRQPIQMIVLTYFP

For the compound `CCOc1ccccc1-c1cc(-c2cc(CC(=O)O)ccc2OCC(C)C)nn1CCc1ccccc1`, the IC50 in data set [1] was 48.7 µM. In data set [2], this compound had a Kinetic_solubility of 0.046 Ug/ml.

Consider `CCOc1ccccc1-c1cc(-c2cc(C(=O)O)ccc2OC)nn1CCc1ccccc1`, for which, in data set [1], half-maximal inhibition (IC50) required 232 µM. The Kinetic_solubility in data set [2] is more than 0.2 Ug/ml.

Regarding `CCOc1ccccc1-c1cc(-c2cc(C(=O)O)ccc2OC)nn1Cc1ccccc1`, the midpoint of inhibition in data set [1], the IC50, lay at 238 µM. In data set [2], this compound displayed a Kinetic_solubility of 0.039 Ug/ml.

`CCOc1ccccc1-c1cc(-c2cc(CC(=O)O)ccc2OCc2cccc(Cl)c2)nn1CCc1ccccc1` yielded a 50% inhibitory concentration (IC50) in data set [1] of 249 µM. Also, in data set [2], the Kinetic_solubility is reported as less than 0.015 Ug/ml.

For `CCOc1ccccc1-c1cc(-c2cc(CCC(=O)O)ccc2OC)nn1CCc1ccccc1`, in data set [1], the concentration for half-maximal inhibition (IC50) was 258 µM. The compound also came in with a Kinetic_solubility in data set [2] of more than 0.2 Ug/ml.

Turning to `CCOc1ccccc1-c1cc(-c2cc(CC(=O)O)ccc2OC)nn1Cc1ccccc1`, 288 µM corresponded to half-maximal inhibition in data set [1] (IC50). In addition, in data set [2], the Kinetic_solubility was 0.138 Ug/ml.

Compound `CCOc1ccc(C(=O)O)cc1-c1cc(-c2cccc(OC)c2OC)n(Cc2ccccc2)n1` gave an IC50 in data set [1] of 295 µM. In data set [2], the Kinetic_solubility is 0.138 Ug/ml.

For the compound `CCCOc1ccc(CC(=O)O)cc1-c1cc(-c2cccc(OC)c2OC)n(Cc2ccccc2)n1`, the IC50 in data set [1] turned out to be 329 µM. In data set [2], this compound yielded a Kinetic_solubility of more than 0.2 Ug/ml.

Regarding `CCOc1ccccc1-c1cc(-c2cc(CC(=O)O)ccc2OC)nn1CCc1ccccc1`, in data set [1], the IC50 stood at 339 µM. For the same compound, the Kinetic_solubility in data set [2] is more than 0.2 Ug/ml.

As to `CCOc1ccccc1-c1cc(-c2ccc(C(=O)O)cc2)nn1Cc1ccccc1`, the IC50 in data set [1] turned out to be 346 µM. The compound further had a Kinetic_solubility in data set [2] of 0.117 Ug/ml.

`CCOc1ccc(CC(=O)O)cc1-c1cc(-c2cccc(OC)c2OC)n(Cc2ccccc2)n1` yielded an IC50 in data set [1] of 348 µM. Also, the Kinetic_solubility in data set [2] was more than 0.2 Ug/ml.

`CCOc1ccc(CCC(=O)O)cc1-c1cc(-c2cccc(OC)c2OC)n(Cc2ccccc2)n1` displayed an IC50 in data set [1] of 353 µM. The compound also had a Kinetic_solubility in data set [2] of more than 0.2 Ug/ml.

As for `CCOc1ccccc1-c1cc(-c2cc(CCC(=O)O)ccc2OC)nn1Cc1ccccc1`, the IC50 in data set [1] worked out at 388 µM. Further, the Kinetic_solubility in data set [2] is more than 0.2 Ug/ml.

Turning to `COc1ccc(CCC(=O)O)cc1-c1cc(-c2cccc(OC)c2OC)n(CCc2ccccc2)n1`, the concentration for half-maximal inhibition (IC50) in data set [1] came to 436 µM. The Kinetic_solubility in data set [2] is on record as more than 0.2 Ug/ml.

In the case of `COc1ccc(CCC(=O)O)cc1-c1cc(-c2cccc(OC)c2OC)n(Cc2ccccc2)n1`, the 50% inhibitory concentration (IC50) in data set [1] was 449 µM. In data set [2], this compound displayed a Kinetic_solubility of 0.169 Ug/ml.

With `COc1ccc(CC(=O)O)cc1-c1cc(-c2ccc(F)cc2)n(Cc2ccccc2)n1`, in data set [1], inhibition was half-maximal at 595 µM (IC50). The compound also registered a Kinetic_solubility in data set [2] of more than 0.2 Ug/ml.

`COc1ccc(CC(=O)O)cc1-c1cc(-c2cccc(OC)c2OC)n(CCc2ccccc2)n1`: half-maximal inhibition in data set [1] (IC50) required 727 µM. This compound also returned a Kinetic_solubility in data set [2] of more than 0.2 Ug/ml.

Consider `COc1ccc(CC(=O)O)cc1-c1cc(-c2cccc(OC)c2OC)n(Cc2ccccc2)n1`, for which the IC50 in data set [1] worked out at 967 µM. Besides, in data set [2], the Kinetic_solubility is on record as more than 0.2 Ug/ml.

In data set [1], `COc1ccc(C(=O)O)cc1-c1cc(-c2cccc(OC)c2OC)n(Cc2ccccc2)n1` returned an IC50 of 1020 µM. Further, the Kinetic_solubility in data set [2] is given as more than 0.2 Ug/ml.

`CCCOc1ccc(C(=O)O)cc1-c1cc(-c2cccc(OC)c2OC)n(CCc2ccccc2)n1` yielded a half-maximal inhibitory concentration (IC50) in data set [1] of 6.56 µM. The compound further yielded a Kinetic_solubility in data set [2] of 0.117 Ug/ml.

For `COc1cccc(-c2cc(-c3cc(C(=O)O)ccc3OCC(C)C)nn2CCc2ccccc2)c1OC`, in data set [1], inhibition was half-maximal at 8.22 µM (IC50). Also, the Kinetic_solubility in data set [2] is 0.056 Ug/ml.

`CCOc1ccc(C(=O)O)cc1-c1cc(-c2ccccc2OCC)n(CCc2ccccc2)n1`: in data set [1], the concentration for half-maximal inhibition (IC50) came to 10.7 µM. Moreover, the Kinetic_solubility in data set [2] was determined as 0.022 Ug/ml.

In the case of `CCOc1ccc(C(=O)O)cc1-c1cc(-c2cccc(OC)c2OC)n(CCc2ccccc2)n1`, the midpoint of inhibition in data set [1], the IC50, lay at 14 µM. In data set [2], the Kinetic_solubility is more than 0.2 Ug/ml.

`CCCCOc1ccc(C(=O)O)cc1-c1cc(-c2cccc(OC)c2OC)n(CCc2ccccc2)n1` had an IC50 in data set [1] of 14.2 µM. The compound further had a Kinetic_solubility in data set [2] of 0.066 Ug/ml.

The compound `CCOc1ccccc1-c1cc(-c2cc(C(=O)O)ccc2OCC(C)C)nn1CCc1ccccc1` came in with an IC50 in data set [1] of 14.2 µM. The Kinetic_solubility in data set [2] was determined as 0.015 Ug/ml.

For the compound `CCCCOc1ccc(C(=O)O)cc1-c1cc(-c2ccccc2OCC)n(CCc2ccccc2)n1`, it took 16.8 µM to reach half-maximal inhibition in data set [1] (IC50). Besides, the Kinetic_solubility in data set [2] is 0.032 Ug/ml.

For the compound `COc1ccc(CCC(=O)O)cc1-c1cc(-c2ccc(F)cc2)n(Cc2ccccc2)n1`, the IC50 in data set [1] turned out to be 17 µM. This compound also came in with a Kinetic_solubility in data set [2] of 0.066 Ug/ml.

Consider `COc1cccc(-c2cc(-c3cc(CCC(=O)O)ccc3OCc3cccc(Cl)c3)nn2Cc2ccccc2)c1OC`, for which it took 31.6 µM to reach half-maximal inhibition in data set [1] (IC50). The Kinetic_solubility in data set [2] is less than 0.015 Ug/ml.

`COc1cccc(-c2cc(-c3cc(CCC(=O)O)ccc3OCc3cccc(Cl)c3)nn2CCc2ccccc2)c1OC`: the IC50 in data set [1] was 34 µM. In addition, the Kinetic_solubility in data set [2] is listed as less than 0.015 Ug/ml.

In turn, `CCOc1ccc(CCC(=O)O)cc1-c1cc(-c2ccc(F)cc2)n(CCc2ccccc2)n1` displayed an IC50 in data set [1] of 35.8 µM. This compound returned a Kinetic_solubility in data set [2] of more than 0.2 Ug/ml.

For `COc1ccc(CCC(=O)O)cc1-c1cc(-c2ccc(Cl)cc2)n(CCc2ccccc2)n1`, in data set [1], it took 38.9 µM to reach half-maximal inhibition (IC50). The same compound yielded a Kinetic_solubility in data set [2] of 0.046 Ug/ml.

In the case of `O=C(O)CCc1ccc(OCc2cccc(Cl)c2)c(-c2cc(-c3ccc(F)cc3)n(CCc3ccccc3)n2)c1`, in data set [1], the IC50 is 47.8 µM. Further, the Kinetic_solubility in data set [2] is given as less than 0.015 Ug/ml.

As for `O=C(O)CCc1ccc(OCc2cccc(Cl)c2)c(-c2cc(-c3ccc(F)cc3)n(Cc3ccccc3)n2)c1`, the 50% inhibitory concentration (IC50) in data set [1] was 51.9 µM. The compound further registered a Kinetic_solubility in data set [2] of less than 0.015 Ug/ml.

In data set [1], `CCCCOc1ccc(CC(=O)O)cc1-c1cc(-c2ccccc2OCC)n(CCc2ccccc2)n1` registered an IC50 of 54.1 µM. In data set [2], this compound showed a Kinetic_solubility of 0.096 Ug/ml.

Take `CCOc1ccccc1-c1cc(-c2cc(CC(=O)O)ccc2OCc2cccc(Cl)c2)nn1Cc1ccccc1`: the IC50 in data set [1] worked out at 54.4 µM. In data set [2], this compound returned a Kinetic_solubility of less than 0.015 Ug/ml.

`CCCOc1ccc(CC(=O)O)cc1-c1cc(-c2cccc(OC)c2OC)n(CCc2ccccc2)n1`: the IC50 in data set [1] came to 60.6 µM. In data set [2], this compound yielded a Kinetic_solubility of 0.117 Ug/ml.

In data set [1], `COc1cccc(-c2cc(-c3cc(CC(=O)O)ccc3OCC(C)C)nn2CCc2ccccc2)c1OC` yielded an IC50 of 68.3 µM. The same compound registered a Kinetic_solubility in data set [2] of 0.056 Ug/ml.

As to `CCCOc1ccc(C(=O)O)cc1-c1cc(-c2ccccc2OCC)n(Cc2ccccc2)n1`, in data set [1], the 50% inhibitory concentration (IC50) was found to be 68.8 µM. Besides, the Kinetic_solubility in data set [2] is 0.096 Ug/ml.

In data set [1], `CCCOc1ccc(CC(=O)O)cc1-c1cc(-c2ccccc2OCC)n(CCc2ccccc2)n1` yielded a half-maximal inhibitory concentration (IC50) of 72 µM. In data set [2], this compound returned a Kinetic_solubility of 0.066 Ug/ml.

In turn, `CCCOc1ccc(C(=O)O)cc1-c1cc(-c2cccc(OC)c2OC)n(Cc2ccccc2)n1` displayed a half-inhibitory concentration (IC50) in data set [1] of 79.3 µM. In data set [2], this compound yielded a Kinetic_solubility of more than 0.2 Ug/ml.

In data set [1], `COc1ccc(CCC(=O)O)cc1-c1cc(-c2ccc(Cl)cc2)n(Cc2ccccc2)n1` showed an IC50 of 86.6 µM. This compound also displayed a Kinetic_solubility in data set [2] of 0.019 Ug/ml.

In the case of `CCOc1ccccc1-c1cc(-c2ccc(C(=O)O)cc2)nn1CCc1ccccc1`, the concentration for half-maximal inhibition (IC50) in data set [1] worked out at 91.2 µM. Moreover, the Kinetic_solubility in data set [2] is recorded as more than 0.2 Ug/ml.

`CCOc1ccc(CCC(=O)O)cc1-c1cc(-c2ccc(F)cc2)n(Cc2ccccc2)n1` registered an IC50 in data set [1] of 101 µM. Moreover, the Kinetic_solubility in data set [2] is on record as less than 0.015 Ug/ml.

On to `CCOc1ccc(CC(=O)O)cc1-c1cc(-c2ccccc2OCC)n(CCc2ccccc2)n1`, for which, in data set [1], inhibition was half-maximal at 102 µM (IC50). The compound also registered a Kinetic_solubility in data set [2] of more than 0.2 Ug/ml.

Compound `CCOc1ccc(CCC(=O)O)cc1-c1cc(-c2ccccc2OCC)n(CCc2ccccc2)n1` registered an IC50 in data set [1] of 105 µM. In addition, the Kinetic_solubility in data set [2] came out at 0.102 Ug/ml.

In turn, `CCOc1ccc(C(=O)O)cc1-c1cc(-c2ccccc2OCC)n(Cc2ccccc2)n1` came in with an IC50 in data set [1] of 111 µM. The compound further returned a Kinetic_solubility in data set [2] of 0.066 Ug/ml.

In data set [1], `CCCCOc1ccc(CC(=O)O)cc1-c1cc(-c2cccc(OC)c2OC)n(CCc2ccccc2)n1` returned an IC50 of 116 µM. The same compound showed a Kinetic_solubility in data set [2] of 0.117 Ug/ml.

`CCCCOc1ccc(CC(=O)O)cc1-c1cc(-c2cccc(OC)c2OC)n(Cc2ccccc2)n1` displayed an IC50 in data set [1] of 118 µM. Moreover, in data set [2], the Kinetic_solubility is more than 0.2 Ug/ml.

For `COc1cccc(-c2cc(-c3cc(CC(=O)O)ccc3OCC(C)C)nn2Cc2ccccc2)c1OC`, inhibition in data set [1] was half-maximal at 120 µM (IC50). The same compound had a Kinetic_solubility in data set [2] of more than 0.2 Ug/ml.

Regarding `O=C(O)c1ccc(-c2cc(-c3ccc(F)cc3)n(CCc3ccccc3)n2)cc1`, half-maximal inhibition in data set [1] (IC50) required 128 µM. Also, the Kinetic_solubility in data set [2] is 0.096 Ug/ml.

With `O=C(O)Cc1ccc(OCc2ccccc2Cl)c(-c2cc(-c3ccc(F)cc3)n(Cc3ccccc3)n2)c1`, the IC50 in data set [1] was 130 µM. Moreover, the Kinetic_solubility in data set [2] was less than 0.015 Ug/ml.

`COc1ccc(C(=O)O)cc1-c1cc(-c2cccc(OC)c2OC)n(CCc2ccccc2)n1`: the half-maximal inhibitory concentration (IC50) in data set [1] came to 186 µM. In data set [2], this compound gave a Kinetic_solubility of more than 0.2 Ug/ml.
